Results from patent US20050009849A1, “Pyridopyrimidine kinase inhibitors” (priority 2003, published 2005).
Where two headings read alike, the source gives them in different places. Each block holds one compound with its values, some of them ahead of it.

Columns and labels:
[1] = Serial plasma levels in mice (bioavailability); format: in vivo; settings: mouse, oral, read-out: bioavailability after oral administration relative to intravenous or intraperitoneal injection
Source text: Toxicological and pharmacological studies in mice and dogs include determining the maximum tolerated doses, measuring plasma and tissue levels and bioavailability after oral and parenteral administration, and developing optimal formulations for both oral and parenteral use. […] One way to administer the drug is by continuous infusion, and we are currently exploring the use of small osmotic pumps that can be inserted into the peritoneal cavities of mice that will deliver a constant concentration continuously. All animal studies are performed under the standard guidelines. Initial dose escalation studies are performed via oral delivery on control mice in order to determine the maximum tolerated dose (MTD). Studies proceed at or below half-MTD. The inherent kinetics for disease engraftment of each model system and the appropriate windows for duration of drug administration are then determined. In the human mesothelioma xenograft model, tumor formation is evaluated, allowing for the establishment of 1-2 mm^3 tumors before drug administration. Survival data are presented using the Kaplan-Meyer method. We will compare the administration of the inhibitors by i.v. or i.p. bolus injection with continuous i.p. infusion using an osmotic pump.

[2] = Pharmacokinetics in B6D2F1 mice; format: in vivo; settings: for Cmax / MRT / bioavailability: B6D2F1, mouse, plasma, 1 mg; for Cmax / MRT / AUG (uM × Min) IV / AUG (uM × Min) PO: one milligram; for bioavailability: po vs iv
Protocol: Solvents. […] SKI-DV281 was dissolved/suspended in a solution of 20% Cremophor +20% ethanol in saline.
Animal Experiments. For each compound, nineteen B6D2F1 mice were used. One mouse was used as control and the rest was divided into two groups with 9 mice per group. One milligram ([…] at 17 mg/ml) of compound was administered to the mice through oral gavage in one group and intravenously in the other group. At each time point (total of 9 time points) after the drug administration, one mouse from each group was sacrificed and approximately 400 μl of blood was collected into heparinized tubes through cardiac puncture. The plasma samples were analyzed as described below.
Analytical. The analysis of drug level in plasma is performed with an automated LC-MS system, which consists of a Prospekt-2 automated sample processor, interfaced with an Agilent 1100 LC-MS. The Prospekt-2 consists of two parts, high pressure eluter (HPE) and automated cartridge exchanger (ACE). The Agilent unit consists of a binary pump, an autosampler, the instrument will perform extraction and analysis automatically. The ACE picks up a new C, 18 solid phase […] (SPE) cartridge and places it into the clamp. The HPE activates the cartridge by passing acetonitrile and water through the cartridge. The autosampler picks up a predetermined amount of the plasma and the HPE flushes the plasma onto the SPE cartridge, washes it with water, then the sample is analyzed. When the cycle is completed, the ACE will fetch a new cartridge and cycle is repeated.
Data analysis and result. The pharmacokinetic curve for each compound was plotted intravenous versus oral (iv vs. po) (see FIGS. 27-29). Data analysis was performed with WinNonlin v.4 (Pharsight) using non-compartmental model.

normal progenitors = experiment: Inhibition of normal progenitors; format: cell-based, human
Source text: (§1) In many experiments the CD34+ blasts were further depleted of GM, megakaryocyte or lymphocyte progenitors (CD 13, 14, 15, 46, 61, 19-) or of erythroid and megakaryocyte progenitors (CD36-, Glycophorin-, CD41/61-) in order to study the drug's effects on purer erythroid or GM progenitors.

CML cell lines = experiment: cells; settings: read-out: IC50 on CML cell lines
Solubility = format: physicochemical
R10-Negative cells = experiment: CFSE cell division and viability; format: cell-based
Protocol: Using the vital stain, CFSE, it is possible to determine the concentrations of different inhibitors required to arrest cell division and also to quantitate the number of quiescent cells. […] However with exposure to ST1571 at the same concentration many cells continue dividing and 80% are still viable after 6 days; even at 100 nM ST1571, some cells are able to continue dividing and the viability is still 24% at 6 days.

CML progenitors = experiment: cells; format: cell-based, human; settings: for inhibition at 0.01 µM: read-out: average inhibition of CML GM progenitors, 10 nM
Source text: as §1

[3] = test system: R10 Negative and R10 Positive cells (M07e/p210bcr-abl); experiment: cells; settings: M-07e
[4] = test system: human glioblastoma, sarcoma, neuroblastoma and Ewing's sarcoma cell lines; experiment: cells; settings: read-out: average IC50s
[5] = biological target: T1, Ba/F3 cells transformed with Bcr-Abl wild-type (Homo sapiens, UniProt P00519, cells depend on it, form not given); experiment: MTS proliferation, Ba/F3 Bcr-Abl wild-type; format: cell-based
T1 construct: fused on or other part: P11274 (Breakpoint cluster region protein)
Protocol: (§2) Presence of single point mutations was verified by sequencing. […] Parental cells were cultured in presence of 2 ng/mL interleukin-3 (IL-3, R&D, Wiesbaden, Germany). IL-3 independent Ba/F3 cells expressing wild-type and mutant BCR-ABL were generated by electroporation and transformed upon withdrawal of IL-3. Expression of Bcr-Abl was confirmed by western blot and flow-cytometric analysis.
(§3) Proliferation was measured using a MTS tetrazolium-based method by absorption of formazam at 490 nm (CellTiter 96, Promega, Madison, Wis., USA). Measures were taken as triplicates after 24 and 48 hours of culture without and in the presence of inhibitor at the indicated concentrations.

Bcr-Abl wild-type = biological target: T2, Bcr-Abl wild-type (Homo sapiens, UniProt P00519); experiment: Bcr-Abl tyrosine phosphorylation in Ba/F3 cells, wild-type; format: cell-based
T2 construct: expressed in transfected cells; host or cells: Ba/F3 cells (electroporation, IL-3 independent); the other entry of the earlier key: BCR (P11274, Breakpoint cluster region protein)

parental Ba/F3 cells = experiment: MTS proliferation, parental Ba/F3 cells; format: cell-based; settings: read-out: IC50, unspecific growth inhibition
Source text: […]. Lancet, 359: 487-491, 2002; incorporated herein by reference). Briefly, RT-PCR fragments derived from clinical samples were cloned into pBlueskript SK+ p185^bcr-abl (Stratagene, Amsterdam, NL), and subcloned into pcDNA3.1/Zeo (+) (Invitrogen, Leek, NL) and Mig EGFP (Bai, R. Y., Ouyang, T., Miething, C., Morris, S. W., Peschel, C., and Duyster, J. Nucleophosmin-anaplastic lymphoma kinase associated with anaplastic large-cell lymphoma activates the phosphatidylinositol 3-kinase/Akt antiapoptotic signaling pathway. Blood, 96: 4319-4327, 2000; incorporated herein by reference). Presence of single point mutations was verified by sequencing. Ba/F3 cells were maintained in RPMI 1640 growth media (Gibco, Karlsruhe, Germany) containing 10% fetal calf serum (Gibco) and P/S (Gibco) (200 U penicillin per mL and 200 μg streptomycin per mL). Parental cells were cultured in presence of 2 ng/mL interleukin-3 (IL-3, R&D, Wiesbaden, Germany). IL-3 independent Ba/F3 cells expressing wild-type and mutant BCR-ABL were generated by electroporation and transformed upon withdrawal of IL-3. Expression of Bcr-Abl was confirmed by western blot and flow-cytometric analysis.
Proliferation was measured using a MTS tetrazolium-based method by absorption of formazam at 490 nm (CellTiter 96, Promega, Madison, Wis., USA). […]

Bcr-Abl/T3151 = biological target: T3, Bcr-Abl/T3151 (Homo sapiens, UniProt P00519, T315I); experiment: Bcr-Abl tyrosine phosphorylation in Ba/F3 cells, T3151; format: cell-based
T3 construct: expressed in transfected cells; host or cells: Ba/F3 cells; the other entry of the earlier key: BCR (P11274, Breakpoint cluster region protein)

[6] = test system: Ba/F3 cells expressing P loop mutant E255V; experiment: MTS proliferation, Ba/F3 Bcr-Abl E255V; format: cell-based
Protocol: as §2, §3

Bcr-Abl Y253H = Bcr-Abl Y253H (Homo sapiens, UniProt P00519, Y253H)
Protocol: (§4) Ba/F3 cells were cultured for 2,5 hours without and in presence of inhibitor at the indicated concentrations. Cell lysis, SDS-PAGE and immunoblotting were done as described previously.^42 Anti-Abl antibodies were obtained from Pharmingen (8E9) (BD Biosciences, Heidelberg, Germany) and Calbiochem-Novabiochem (Ab3) (Schwalbach, Germany). Antibodies to phosphotyrosine were purchased from Upstate Biotechnology (4G10) (Biozol, Eching, Germany) and Transduction (PY20) (BD Biosciences, Heidelberg, Germany). Bands were visualized using the ECL system (Amersham, Braunschweig, Germany).

Bcr-Abl H396P = Bcr-Abl H396P (Homo sapiens, UniProt P00519, H396P)
Protocol: as §4

Bcr-Abl E255K = Bcr-Abl E255K (Homo sapiens, UniProt P00519, E255K)
Protocol: as §4

Bcr-Abl E255V = Bcr-Abl E255V (Homo sapiens, UniProt P00519, E255V)
Protocol: as §4

[7] = test system: Ba/F3 cells expressing P loop mutant Y253H; experiment: MTS proliferation, Ba/F3 Bcr-Abl Y253H; format: cell-based
Protocol: as §2, §3

[8] = biological target: T4, Ba/F3 cells transformed with Bcr-Abl wild-type (Homo sapiens, UniProt P00519); experiment: MTS proliferation, Ba/F3 Bcr-Abl wild-type; format: cell-based; settings: for GI50: read-out: IC50, growth inhibition
T4 construct: other: von Bubnoff et al. 2002; other: 48 hours of culture; fused on or other part: P11274 (Breakpoint cluster region protein)
Protocol: as §2, §3

[9] = test system: Ba/F3 cells expressing P loop mutant E255K; experiment: MTS proliferation, Ba/F3 Bcr-Abl E255K; format: cell-based
Protocol: as §2, §3

[10] = intravenous, read-out: Cmax (uM) IV
[11] = intravenous, read-out: MRT (Min) IV (converted)
[12] = oral gavage, read-out: Cmax (uM) PO
[13] = oral gavage, read-out: MRT (Min) PO (converted)

bioavailability [1]: ~8% | Cmax [2, 10]: 90 µM | MRT [2, 11]: 103 min | Cmax [2, 12]: 3.2 µM | MRT [2, 13]: 126 min | bioavailability [2]: 6.6% | AUG (uM × Min) IV ([2]; intravenous): 2395 µM·min | AUG (uM × Min) PO ([2]; oral gavage): 158 µM·min
Structure (SMILES): Cn1c(=O)c(-c2c(Cl)cccc2Cl)cc2cnc(Nc3cccc(CO)c3)nc21 [PD166326, 6-(2,6-Dichlorophenyl)-2-(3-hydroxymethylphenylamino)-8-methyl-8H-pyrido[2,3-d]pyrimidin-7-one]

Structure (SMILES): CSc1cccc(Nc2ncc3cc(-c4c(Cl)cccc4Cl)c(=O)n(C)c3n2)c1 [PD173955]
effect on normal erythroid progenitors (normal progenitors; 10 nM): unaffected | inhibition of normal progenitors (normal progenitors; 10 nM, any of the cytokines singly or in combination): no inhibition | IC50 (normal progenitors; Homo sapiens): 350 nM | IC50 (CML cell lines): 2 to 35 nM | solubility (Solubility): quite insoluble | cell division (CFSE) (R10-Negative cells; 25 nM, after one division by Day 2): subsequent divisions are blocked | CML erythroid progenitors' exaggerated response to EPO alone or KL alone (CML progenitors; 10 nM): almost completely blocked | IC50 (CML progenitors; Homo sapiens, read-out: IC50 for CML progenitors, varies in different patients): 1.5 to 7.5 nM | inhibition at 0.01 µM (CML progenitors; Homo sapiens, G- + GM + KL): 34% | inhibition at 0.01 µM (CML progenitors; Homo sapiens, G- + GM-CSF at 0.03 ng/ml): 68% | inhibition at 0.01 µM (CML progenitors; Homo sapiens, G- + GM-CSF at 10 ng/ml): 61% | inhibition at 0.01 µM (CML progenitors; Homo sapiens, KL alone at 50-100 ng/ml): 83% | IC50 (CML progenitors; read-out: IC50 for CML progenitors, varies in different patients): ~2 nM | IC50 [3]: ~2 nM | IC50 [4]: 400 to 1000 nM

Structure (SMILES): Cc1cc(Nc2ncc3cc(-c4c(Cl)cccc4Cl)c(=O)n(C)c3n2)ccc1F [PD180970]
fold higher concentrations than the most active compounds [5]: 5 fold | concentration of complete disappearance of phosphotyrosine Bcr-Abl (Bcr-Abl wild-type): 250 nM | IC50 (parental Ba/F3 cells): 830 nM | activity (autophosphorylation) of Bcr-Abl/T3151 (Bcr-Abl/T3151): did not impair | cellular IC95 [6]: 935 nM | concentration of complete disappearance of phosphotyrosine Bcr-Abl (Bcr-Abl Y253H): 2 µM | concentration of complete disappearance of phosphotyrosine Bcr-Abl (Bcr-Abl H396P): 250 nM | concentration of complete disappearance of phosphotyrosine Bcr-Abl (Bcr-Abl E255K): 1 µM | concentration of complete disappearance of phosphotyrosine Bcr-Abl (Bcr-Abl E255V): 2 µM | cellular IC95 [7]: 770 nM

IC95, growth inhibition ([8]; 48 hours of culture): 515 nM | GI50 ([8]; 48 hours of culture): 115 nM
Structure (SMILES): Cn1c(=O)c(-c2c(Cl)cccc2Cl)cc2cnc(Nc3ccc(NC(=O)CCCCCNC(=O)CCCC[C@@H]4SC[C@@H]5NC(=O)N[C@@H]54)cc3)nc21 [SKI DV 1-10 biotinyl, 2-{4-[6-(Biotinamido)hexanamido]phenylamino}-6-(2,6-dichlorophenyl)-8-methyl-8H-pyrido[2,3-d]pyrimidin-7-one]

IC95, growth inhibition [8]: 40 nM | GI50 ([8]; ba/f3 cells transformed with bcr-abl wild-type): 9 nM | Cmax [2, 10]: 224 µM | MRT [2, 11]: 174 min | Cmax [2, 12]: 10 µM | MRT [2, 13]: 294 min | bioavailability [2]: 4% | AUG (uM × Min) IV ([2]; intravenous): 20319 µM·min | AUG (uM × Min) PO ([2]; oral gavage): 826 µM·min
Structure (SMILES): Cn1c(=O)c(-c2c(Cl)cccc2Cl)cc2cnc(Nc3cccc(N)c3)nc21 [SKI DV 2-43, 2-(3-Aminophenylamino)-6-(2,6-dichlorophenyl)-8-methyl-8H-pyrido[2,3-d]pyrimidin-7-one]
cellular IC95 [9]: 110 nM | cellular IC95 [6]: 200 nM | cellular IC95 [7]: 125 nM

Structure (SMILES): Cc1ccc(NC(=O)c2ccc(CN3CCN(C)CC3)cc2)cc1Nc1nccc(-c2cccnc2)n1 [STI-571]
viability at […] (R10-Negative cells; 144 h, 25 nM, after 6 days): 80% | viability at 0.1 µM (R10-Negative cells; 144 h, 100 nM, at 6 days): 24%
